# Activity calls are given as the source filed them. No cut-off for these calls is given here.
# Tests used:
# Avena sativa [1] = assay: Induction of electrolyte leakage in Avena sativa Shokan-1 leaf lower epidermis at 0.1 mg/ml after 24 hr by conductivity test; type: functional, organism-based
# Avena sativa [2] = assay: Induction of phytoalexin secretion in Avena sativa Shokan-1 leaf lower epidermis assessed as amount of avenanthramide A at 0.1 mg/ml by HPLC analysis relative to control; type: functional
# Avena sativa [3] = assay: Induction of phytoalexin avenanthramide A secretion in Avena sativa Shokan-1 leaf lower epidermis at 0.1 mg/ml after 24 hr in presence of CaCl2; type: functional, organism-based
# Avena sativa [4] = assay: Induction of phytoalexin secretion in Avena sativa Pc-2 leaf lower epidermis assessed as amount of avenanthramide D at 0.1 mg/ml by HPLC analysis relative to control; type: functional, organism-based
# Avena sativa [5] = assay: Induction of phytoalexin secretion in Avena sativa Pc-2 leaf lower epidermis assessed as amount of avenanthramide G at 0.1 mg/ml by HPLC analysis relative to control; type: functional, organism-based
# Avena sativa [6] = assay: Induction of phytoalexin secretion in Avena sativa Pc-2 leaf lower epidermis assessed as amount of avenanthramide L at 0.1 mg/ml by HPLC analysis relative to control; type: functional, organism-based
# Avena sativa [7] = assay: Induction of phytoalexin secretion in Avena sativa Pc-2 leaf lower epidermis assessed as amount of avenanthramide B at 0.1 mg/ml by HPLC analysis relative to control; type: functional, organism-based
# Avena sativa [8] = assay: Induction of phytoalexin secretion in Avena sativa Pc-2 leaf lower epidermis assessed as amount of avenanthramide A at 0.1 mg/ml by HPLC analysis relative to control; type: functional, organism-based
# Avena sativa [9] = assay: Induction of phytoalexin secretion in Avena sativa Shokan-1 leaf lower epidermis assessed as amount of avenanthramide G at 0.1 mg/ml by HPLC analysis relative to control; type: functional
# Avena sativa [10] = assay: Induction of phytoalexin secretion in Avena sativa Shokan-1 leaf lower epidermis assessed as amount of avenanthramide L at 0.1 mg/ml by HPLC analysis relative to control; type: functional
# Avena sativa [11] = assay: Induction of phytoalexin secretion in Avena sativa Shokan-1 leaf lower epidermis assessed as amount of avenanthramide B at 0.1 mg/ml by HPLC analysis relative to control; type: functional
# Avena sativa [12] = assay: Induction of phytoalexin secretion in Avena sativa Shokan-1 leaf lower epidermis assessed as amount of avenanthramide D at 0.1 mg/ml by HPLC analysis relative to control; type: functional
# Avena sativa [13] = assay: Induction of phytoalexin avenanthramide A secretion in Avena sativa Shokan-1 leaf lower epidermis at 1 mg/ml after 24 hr in presence of CaCl2; type: functional, organism-based
# Avena sativa [14] = assay: Induction of electrolyte leakage in Avena sativa Shokan-1 leaf lower epidermis at 1 mg/ml after 24 hr by conductivity test; type: functional, organism-based
# Avena sativa [15] = assay: Induction of phytoalexin avenanthramide A secretion in Avena sativa Shokan-1 leaf lower epidermis at 1 mg/ml upto 24 hr; type: functional, organism-based
# Avena sativa [16] = assay: Induction of phytoalexin avenanthramide A secretion in Avena sativa Shokan-1 leaf lower epidermis at 1 mg/ml after 24 hr; type: functional, organism-based
# Avena sativa [17] = assay: Induction of phytoalexin secretion in Avena sativa Shokan-1 leaf lower epidermis assessed as amount of avenanthramide A at 1 mg/ml by HPLC analysis relative to control; type: functional
# Avena sativa [18] = assay: Induction of phytoalexin secretion in Avena sativa Pc-2 leaf lower epidermis assessed as amount of avenanthramide D at 1 mg/ml by HPLC analysis relative to control; type: functional, organism-based
# Avena sativa [19] = assay: Induction of phytoalexin secretion in Avena sativa Pc-2 leaf lower epidermis assessed as amount of avenanthramide G at 1 mg/ml by HPLC analysis relative to control; type: functional, organism-based
# Avena sativa [20] = assay: Induction of phytoalexin secretion in Avena sativa Pc-2 leaf lower epidermis assessed as amount of avenanthramide L at 1 mg/ml by HPLC analysis relative to control; type: functional, organism-based
# Avena sativa [21] = assay: Induction of phytoalexin secretion in Avena sativa Pc-2 leaf lower epidermis assessed as amount of avenanthramide B at 1 mg/ml by HPLC analysis relative to control; type: functional, organism-based
# Avena sativa [22] = assay: Induction of phytoalexin secretion in Avena sativa Pc-2 leaf lower epidermis assessed as amount of avenanthramide A at 1 mg/ml by HPLC analysis relative to control; type: functional, organism-based
# Avena sativa [23] = assay: Induction of phytoalexin secretion in Avena sativa Shokan-1 leaf lower epidermis assessed as amount of avenanthramide G at 1 mg/ml by HPLC analysis relative to control; type: functional
# Avena sativa [24] = assay: Induction of phytoalexin secretion in Avena sativa Shokan-1 leaf lower epidermis assessed as amount of avenanthramide L at 1 mg/ml by HPLC analysis relative to control; type: functional
# Avena sativa [25] = assay: Induction of phytoalexin secretion in Avena sativa Shokan-1 leaf lower epidermis assessed as amount of avenanthramide B at 1 mg/ml by HPLC analysis relative to control; type: functional
# Avena sativa [26] = assay: Induction of phytoalexin secretion in Avena sativa Shokan-1 leaf lower epidermis assessed as amount of avenanthramide D at 1 mg/ml by HPLC analysis relative to control; type: functional
# Avena sativa [27] = assay: Induction of phytoalexin avenanthramide A secretion in Avena sativa Pc-2 leaf lower epidermis at 1 ng/ml after 24 hr in presence of CaCl2; type: functional, organism-based
# Avena sativa [28] = assay: Induction of electrolyte leakage in Avena sativa Pc-2 leaf lower epidermis at 1 ng/ml after 24 hr by conductivity test; type: functional, organism-based
# Avena sativa [29] = assay: Induction of phytoalexin avenanthramide A secretion in Avena sativa Pc-2 leaf lower epidermis at 100 ng/ml after 24 hr; type: functional, organism-based
# Avena sativa [30] = assay: Induction of electrolyte leakage in Avena sativa Pc-2 leaf lower epidermis at 1 ng/ml after 24 hr in presence of CaCl2; type: functional, organism-based
# Avena sativa [31] = assay: Induction of phytoalexin avenanthramide A secretion in Avena sativa Pc-2 leaf lower epidermis at 5 mg/ml after 24 hr; type: functional, organism-based
# Avena sativa [32] = assay: Induction of phytoalexin secretion in Avena sativa Pc-2 leaf lower epidermis assessed as amount of avenanthramide D at 1 ng/ml by HPLC analysis relative to control; type: functional
# Avena sativa [33] = assay: Induction of phytoalexin secretion in Avena sativa Pc-2 leaf lower epidermis assessed as amount of avenanthramide L at 1 ng/ml by HPLC analysis relative to control; type: functional
# Avena sativa [34] = assay: Induction of phytoalexin secretion in Avena sativa Pc-2 leaf lower epidermis assessed as amount of avenanthramide A at 1 ng/ml by HPLC analysis relative to control; type: functional
# Avena sativa [35] = assay: Induction of phytoalexin secretion in Avena sativa Pc-2 leaf lower epidermis assessed as amount of avenanthramide G at 1 ng/ml by HPLC analysis relative to control; type: functional
structure (smiles),measurement,setting,value
N[C@H]1[C@H](O[C@H]2[C@H](O)[C@@H](N)[C@H](O[C@H]3[C@H](O)[C@@H](N)[C@H](O[C@H]4[C@H](O)[C@@H](N)[C@H](O[C@H]5[C@H](O)[C@@H](N)C(O)O[C@@H]5CO)O[C@@H]4CO)O[C@@H]3CO)O[C@@H]2CO)O[C@H](CO)[C@@H](O)[C@@H]1O (stereo not given in full) [CHITOPENTAOSE],Activity,Avena sativa [1],Active
same,fold change (FC),Avena sativa [2],100
same,Activity,Avena sativa [3],inactive
same,Activity,Avena sativa [4],inactive
same,Activity,Avena sativa [5],inactive
same,Activity,Avena sativa [6],inactive
same,Activity,Avena sativa [7],inactive
same,Activity,Avena sativa [8],inactive
same,fold change (FC),Avena sativa [9],13
same,fold change (FC),Avena sativa [10],1.4
same,fold change (FC),Avena sativa [11],3.4
same,fold change (FC),Avena sativa [12],10.7
CC(=O)N[C@H]1[C@H](O[C@H]2[C@H](O)[C@@H](NC(C)=O)[C@H](O[C@H]3[C@H](O)[C@@H](NC(C)=O)C(O)O[C@@H]3CO)O[C@@H]2CO)O[C@H](CO)[C@@H](O[C@@H]2O[C@H](CO)[C@@H](O[C@@H]3O[C@H](CO)[C@@H](O)[C@H](O)[C@H]3NC(C)=O)[C@H](O)[C@H]2NC(C)=O)[C@@H]1O (stereo not given in full) [N-ACETYLCHITOPENTAOSE],Activity,Avena sativa [13],inactive
same,Activity,Avena sativa [14],inactive
same,Activity,Avena sativa [15],Active
same,Activity,Avena sativa [16],inactive
same,fold change (FC),Avena sativa [17],100
same,Activity,Avena sativa [18],inactive
same,Activity,Avena sativa [19],inactive
same,Activity,Avena sativa [20],inactive
same,Activity,Avena sativa [21],inactive
same,Activity,Avena sativa [22],inactive
same,fold change (FC),Avena sativa [23],2.8
same,fold change (FC),Avena sativa [24],20.4
same,fold change (FC),Avena sativa [25],26
same,fold change (FC),Avena sativa [26],1.9
CC(C)C1OC2=C(CC(C(=O)O)NC(=O)/C(=C/Cl)NC(=O)C1NC(=O)C(NC(=O)C(CC(C)C(Cl)Cl)NC(=O)C(O)O)C(O)CCCN)C(=O)CC2 (stereo not given) [VICTORIN D],Activity,Avena sativa [27],inactive
same,Activity,Avena sativa [28],Active
same,Activity,Avena sativa [29],Active
same,Activity,Avena sativa [30],inactive
same,Activity,Avena sativa [31],inactive
same,fold change (FC),Avena sativa [32],38.4
same,fold change (FC),Avena sativa [33],3
same,fold change (FC),Avena sativa [34],100
same,fold change (FC),Avena sativa [35],84.6

# From ChEMBL document CHEMBL3045325, “Comparative Studies of Elicitors That Induce Phytoalexin in Oats” (1996)
